Legend:
[1] = system: Bacillus anthracis K8902; format: cell-based; details: 10 micrograms per disk; ciprofloxacin 5, vancomycin 30 micrograms per disk; 35° C.
[2] = system: Enterococcus faecium ATCC 51559; assay: disk diffusion assay; format: cell-based; details: 10 micrograms per disk; ciprofloxacin 5, vancomycin 30 micrograms per disk; 35° C.
[3] = system: Shigella dysenteriae ATCC 11835; assay: disk diffusion assay; format: cell-based; details: kakadumycin B at 10 μg; control antibiotic; MHA 35° C.
[4] = system: DNA synthesis in Bacillus subtilis; assay: macromolecular synthesis whole cell assay, [3H]thymidine incorporation; format: cell-based; details: 1×MIC
[5] = system: Klebsiella pneumoniae ATCC 10031; assay: disk diffusion assay; details: MHA 35° C.
[6] = system: Staphylococcus aureus (MRSA) ATCC 33591; assay: disk diffusion assay; details: MHA 35° C.
[7] = system: Enterococcus faecalis ATCC 51299; assay: disk diffusion assay; format: cell-based; details: for Disk Diffusion, Enterococcus faccalis (VRE) 51299: kakadumycin B at 10 μg, control antibiotic, MHA 35° C.
[8] = system: Pseudomonas aeruginosa ATCC 27853; assay: disk diffusion assay; format: cell-based; details: kakadumycin B at 10 μg; control antibiotic; MHA 35° C.
[9] = system: Streptococcus pneumoniae ATCC 49619; assay: disk diffusion assay; format: cell-based; details: kakadumycin B at 10 μg; control antibiotic; MHA w/5% dsb 35° C. w/5% CO2
[10] = system: Burkholderia cepacia ATCC 25416; assay: disk diffusion assay; details: kakadumycin B at 10 μg; control antibiotic; MHA 35° C.
[11] = system: Acinetobacter sp. ATCC 49137; assay: disk diffusion assay; format: cell-based; details: for Disk Diffusion, Acinetobacter spp. 49137: kakadumycin B at 10 μg, control antibiotic, MHA 35° C.
[12] = system: Enterococcus faecium ATCC 49624; assay: disk diffusion assay; format: cell-based
[13] = system: S. epidermis ATCC 12228; assay: disk diffusion assay; format: cell-based, Staphylococcus epidermidis; details: kakadumycin B at 10 μg; control antibiotic; MHA 35° C.
[14] = system: Staphylococcus aureus ATCC 29213; assay: disk diffusion assay; format: cell-based; details: kakadumycin B at 10 μg; control antibiotic; MHA 35° C.
[15] = system: Salmonella typhimurium ATCC 13311; assay: disk diffusion assay; details: kakadumycin B at 10 μg; control antibiotic; MHA 35° C.
[16] = system: Staphylococcus aureus (GISA) ATCC 700699; assay: disk diffusion assay; details: kakadumycin B at 10 μg; control antibiotic; MHA 35° C.
[17] = system: Micrococcus luteus ATCC 9341; assay: disk diffusion assay; details: kakadumycin B at 10 μg; control antibiotic; MHA 35° C.
[18] = system: Human Primary Mammary Epithelial HMEC; assay: CellTiter 96 Aqueous Non-Radioactive Cell Proliferation Assay; format: cell-based
Method: (§1) The munumbicins were then tested against three human cancer cell lines (ATCC) and human primary mammary epithelial cells (HMECs) (Clonetics; Biowhittaker, Walkersville, Md.) using a CellTiter 96® Aqueous Non-Radioactive Cell Proliferation Assay kit from Promega (Madison, Wis.). The cell lines were A-549 (lung epithelial carcinoma, ATCC CCL-185), ME-180 (cervical epithelial epidermoid carcinoma, ATCC HTB-33), and BT-20 (breast epithelial cancer, ATCC HTB-19), and were grown in the media recommended by ATCC. The primary mammary cells were cultured as recommended by the manufacturer in mammary epithelial cell growth media (MEGM®). […] After seeding, the cells were incubated for five hours at 37° C. before addition of the munumbicins. Two-fold serial dilutions of the munumbicins were made in the culture medium, and a volume equal to that of the seeded cells for each dilution was added to three wells of cells. Each plate also contained some wells with cells plus medium only and some wells with medium only. […] The A-549 and ME-180 cells were incubated for 48 hours. […] The plates were incubated at 37° C. for one to four hours, and the OD490 was determined. The OD reading of all wells was corrected for background by subtracting the reading of wells containing medium only. […] Kakadumycin A was tested against three human cancer cell lines (ATCC) and human primary mammary epithelial cells using the procedure described above for the munumbicins. Kadadumycin B was tested against one human cancer cell line.

[19] = system: Human Breast Cancer Epithelial BT-20; assay: as above; format: cell-based; details: text of Examples 15, 18, 19
Method: as §1

[20] = system: Enterococcus faecalis ATCC 29212; assay: disk diffusion assay; format: cell-based; details: kakadumycin B at 10 μg; control antibiotic; MHA 35° C.
[21] = system: Escherichia coli ATCC 25922; assay: disk diffusion assay; format: cell-based; details: kakadumycin B at 10 μg; control antibiotic; MHA 35° C.
[22] = system: human red blood cells
[23] = system: S. maltophilia ATCC 13637; assay: disk diffusion assay; format: cell-based, Stenotrophomas maltophilia; details: kakadumycin B at 10 μg; control antibiotic; MHA 35° C.
[24] = A3-5-1 10 micrograms, Cip 5 micrograms
[25] = kakadumycin B at 10 μg, control antibiotic
[26] = 10 micrograms per disk, ciprofloxacin 5, vancomycin 30 micrograms per disk, 35° C.

O=C(O)c1cn(C2CC2)c2cc(N3CCNCC3)c(F)cc2c1=O [Ciprofloxacin, reference compound]
diameter of the zone of inhibition, Bacillus anthracis K8902 [1]: 16 mm | diameter of the zone of inhibition, Enterococcus faecium ATCC 51559 [2]: 13 mm | Disk Diffusion, Shigella dysenteriae 11835 [3]: 24 mm (cipro) | % [3H]thymidine (DNA synthesis) incorporation of that of the untreated culture ([4]; 5 min): 36% | % [3H]thymidine (DNA synthesis) incorporation of that of the untreated culture ([4]; 10 min): 35% | Disk Diffusion, Klebsiella pneumoniae 10031 [5, 24]: Cip (5 micro-)-34 mm | Disk Diffusion, Klebsiella pneumoniae 10031 [5, 25]: 32 mm (cipro) | Disk Diffusion, Staphylococcus aureus (MRSA) 33591 [6, 24]: Cip (5 micro-)-26 mm | Disk Diffusion, Staphylococcus aureus (MRSA) 33591 [6, 25]: 27 mm (cipro) | diameter of the zone of inhibition, Enterococcus faecalis ATCC 51299 [7, 26]: 22 mm | Disk Diffusion, Enterococcus faccalis (VRE) 51299 [7]: 23 mm (cipro) | Disk Diffusion, Pseudomonas aeruginosa 27853 [8]: 30 mm (cipro) | Disk Diffusion, Streptococcus pneumoniae 49619 [9]: 24 mm (cipro) | Disk Diffusion, Burkholderia cepacia 25416 [10]: 24 mm (cipro) | diameter of the zone of inhibition, Acinetobacter sp. ATCC 49137 ([11]; 10 micrograms per disk, ciprofloxacin 5, vancomycin 30 micrograms per disk, grown at 30° C.): 29 mm | Disk Diffusion, Acinetobacter spp. 49137 [11]: 26 mm (cipro) | diameter of the zone of inhibition, Enterococcus faecium ATCC 49624 [12, 26]: 15 mm

kakadumycin B
Disk Diffusion, Staphylococcus epidermidis 12228 [13]: 23 mm | Disk Diffusion, Staphylococcus aureus 29213 [14]: 17 mm | Disk Diffusion, Shigella dysenteriae 11835 [3]: 10 mm | Disk Diffusion, Salmonella typhimurium 13311 [15]: R | Disk Diffusion, Staphylococcus aureus (GISA) 700699 [16]: 22 mm | Disk Diffusion, Micrococcus luteus 9341 [17]: 28 mm | Disk Diffusion, Klebsiella pneumoniae 10031 [5, 25]: R | Disk Diffusion, Staphylococcus aureus (MRSA) 33591 [6, 25]: 22 mm | IC50 cytotoxicity, human mammary epithelial cells [18]: 10.5±1.4 nanograms/ml | IC50 human breast cancer cell line BT 20 [19]: 8.0 ng/mL | Disk Diffusion, Enterococcus faecalis 29212 [20]: 20 mm | Disk Diffusion, Enterococcus faccalis (VRE) 51299 [7]: 21 mm | Disk Diffusion, Pseudomonas aeruginosa 27853 [8]: R | Disk Diffusion, Escherichia coli 25922 [21]: 8 mm | concentration causing detectable lysis of human red blood cells [22]: > 80 micrograms/ml | Disk Diffusion, Streptococcus pneumoniae 49619 [9]: 22 mm | Disk Diffusion, Burkholderia cepacia 25416 [10]: R | Disk Diffusion, Acinetobacter spp. 49137 [11]: 11 mm | Disk Diffusion, Stenotrophomas maltophilia 13637 [23]: 13 mm | Disk Diffusion, Enterococcus faecium 49624 ([12]; kakadumycin B at 10 μg, control antibiotic, MHA 35° C.): 22 mm

— US7259004B1, “Endophytic streptomycetes from higher plants with biological activity” (Montana State University, priority 2002, dated 2007)
